Key:
SMARCA2 = molecular target: T1, SMARCA2 (Homo sapiens, UniProt P51531); test: SMARCA2 HiBiT degradation assay in HeLa cells; assay type: cell-based; conditions: 18 hours; for DC50: read-out: SMARCA2 IC50; for Dmax: HeLa
T1 construct: SMARCA2-HiBiT knock-in Hela monoclonal cell (CS302366); host or cells: HeLa (CRISPR HiBiT knock-in monoclonal line, heterozygous)
In short: (§1)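 Degradation measured as HiBiT luminescence (Nano-Glo lytic reagent) after 18 h compound exposure at 37° C. Cells were HeLa clones carrying heterozygous HiBiT tags on SMARCA2 or SMARCA4, 2500 per well; compounds at 3-fold serial dilution from 10 μM.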

SMARCA4 = molecular target: T2, SMARCA4 (Homo sapiens, UniProt P51532); test: SMARCA4 HiBiT degradation assay in HeLa cells; assay type: cell-based; conditions: 18 hours; for Dmax: HeLa
T2 construct: SMARCA4-HiBiT knock-in Hela monoclonal cell (CS3023226) were purchased from Promega; host or cells: HeLa (CRISPR HiBiT knock-in monoclonal line, heterozygous)
In short: as §1

T1 sequence (P51531 whole entry): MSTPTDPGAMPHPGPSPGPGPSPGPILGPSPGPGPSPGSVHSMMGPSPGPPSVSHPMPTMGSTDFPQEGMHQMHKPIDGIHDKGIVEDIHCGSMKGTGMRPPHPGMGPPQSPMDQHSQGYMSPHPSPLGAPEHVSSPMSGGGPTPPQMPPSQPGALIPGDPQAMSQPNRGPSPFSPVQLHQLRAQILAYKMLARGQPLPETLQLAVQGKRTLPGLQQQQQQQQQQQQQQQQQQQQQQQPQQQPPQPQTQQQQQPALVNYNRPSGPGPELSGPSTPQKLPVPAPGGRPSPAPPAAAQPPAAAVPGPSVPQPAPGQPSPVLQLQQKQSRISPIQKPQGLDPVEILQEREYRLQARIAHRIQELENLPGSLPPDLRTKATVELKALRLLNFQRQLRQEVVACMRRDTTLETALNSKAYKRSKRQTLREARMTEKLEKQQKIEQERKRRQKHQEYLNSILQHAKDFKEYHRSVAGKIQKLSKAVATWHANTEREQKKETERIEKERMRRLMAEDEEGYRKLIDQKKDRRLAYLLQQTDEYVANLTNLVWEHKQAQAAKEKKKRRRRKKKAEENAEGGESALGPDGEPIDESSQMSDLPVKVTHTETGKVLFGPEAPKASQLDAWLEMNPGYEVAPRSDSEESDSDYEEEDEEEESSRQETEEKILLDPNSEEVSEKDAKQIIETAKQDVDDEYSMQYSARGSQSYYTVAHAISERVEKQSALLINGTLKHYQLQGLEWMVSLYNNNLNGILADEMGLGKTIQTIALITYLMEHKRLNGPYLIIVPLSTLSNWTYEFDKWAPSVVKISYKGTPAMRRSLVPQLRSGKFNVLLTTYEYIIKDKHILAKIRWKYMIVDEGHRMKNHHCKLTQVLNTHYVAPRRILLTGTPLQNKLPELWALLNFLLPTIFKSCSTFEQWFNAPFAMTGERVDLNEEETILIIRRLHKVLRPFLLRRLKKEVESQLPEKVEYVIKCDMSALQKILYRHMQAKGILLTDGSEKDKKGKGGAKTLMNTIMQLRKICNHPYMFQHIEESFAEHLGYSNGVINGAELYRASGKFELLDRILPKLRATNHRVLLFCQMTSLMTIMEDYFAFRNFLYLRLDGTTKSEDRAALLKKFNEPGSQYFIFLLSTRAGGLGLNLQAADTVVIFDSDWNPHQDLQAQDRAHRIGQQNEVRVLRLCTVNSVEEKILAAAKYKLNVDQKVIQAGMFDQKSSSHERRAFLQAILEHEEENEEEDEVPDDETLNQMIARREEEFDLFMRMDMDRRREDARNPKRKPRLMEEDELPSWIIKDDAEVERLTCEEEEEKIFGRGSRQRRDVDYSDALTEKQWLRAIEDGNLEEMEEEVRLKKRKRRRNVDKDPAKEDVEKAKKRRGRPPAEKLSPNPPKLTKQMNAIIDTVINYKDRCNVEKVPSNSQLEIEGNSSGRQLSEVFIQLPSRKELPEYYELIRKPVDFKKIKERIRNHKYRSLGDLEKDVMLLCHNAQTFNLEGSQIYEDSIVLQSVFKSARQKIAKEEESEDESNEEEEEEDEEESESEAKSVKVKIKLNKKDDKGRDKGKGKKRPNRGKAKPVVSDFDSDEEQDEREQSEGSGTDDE
T2 sequence (P51532 whole entry): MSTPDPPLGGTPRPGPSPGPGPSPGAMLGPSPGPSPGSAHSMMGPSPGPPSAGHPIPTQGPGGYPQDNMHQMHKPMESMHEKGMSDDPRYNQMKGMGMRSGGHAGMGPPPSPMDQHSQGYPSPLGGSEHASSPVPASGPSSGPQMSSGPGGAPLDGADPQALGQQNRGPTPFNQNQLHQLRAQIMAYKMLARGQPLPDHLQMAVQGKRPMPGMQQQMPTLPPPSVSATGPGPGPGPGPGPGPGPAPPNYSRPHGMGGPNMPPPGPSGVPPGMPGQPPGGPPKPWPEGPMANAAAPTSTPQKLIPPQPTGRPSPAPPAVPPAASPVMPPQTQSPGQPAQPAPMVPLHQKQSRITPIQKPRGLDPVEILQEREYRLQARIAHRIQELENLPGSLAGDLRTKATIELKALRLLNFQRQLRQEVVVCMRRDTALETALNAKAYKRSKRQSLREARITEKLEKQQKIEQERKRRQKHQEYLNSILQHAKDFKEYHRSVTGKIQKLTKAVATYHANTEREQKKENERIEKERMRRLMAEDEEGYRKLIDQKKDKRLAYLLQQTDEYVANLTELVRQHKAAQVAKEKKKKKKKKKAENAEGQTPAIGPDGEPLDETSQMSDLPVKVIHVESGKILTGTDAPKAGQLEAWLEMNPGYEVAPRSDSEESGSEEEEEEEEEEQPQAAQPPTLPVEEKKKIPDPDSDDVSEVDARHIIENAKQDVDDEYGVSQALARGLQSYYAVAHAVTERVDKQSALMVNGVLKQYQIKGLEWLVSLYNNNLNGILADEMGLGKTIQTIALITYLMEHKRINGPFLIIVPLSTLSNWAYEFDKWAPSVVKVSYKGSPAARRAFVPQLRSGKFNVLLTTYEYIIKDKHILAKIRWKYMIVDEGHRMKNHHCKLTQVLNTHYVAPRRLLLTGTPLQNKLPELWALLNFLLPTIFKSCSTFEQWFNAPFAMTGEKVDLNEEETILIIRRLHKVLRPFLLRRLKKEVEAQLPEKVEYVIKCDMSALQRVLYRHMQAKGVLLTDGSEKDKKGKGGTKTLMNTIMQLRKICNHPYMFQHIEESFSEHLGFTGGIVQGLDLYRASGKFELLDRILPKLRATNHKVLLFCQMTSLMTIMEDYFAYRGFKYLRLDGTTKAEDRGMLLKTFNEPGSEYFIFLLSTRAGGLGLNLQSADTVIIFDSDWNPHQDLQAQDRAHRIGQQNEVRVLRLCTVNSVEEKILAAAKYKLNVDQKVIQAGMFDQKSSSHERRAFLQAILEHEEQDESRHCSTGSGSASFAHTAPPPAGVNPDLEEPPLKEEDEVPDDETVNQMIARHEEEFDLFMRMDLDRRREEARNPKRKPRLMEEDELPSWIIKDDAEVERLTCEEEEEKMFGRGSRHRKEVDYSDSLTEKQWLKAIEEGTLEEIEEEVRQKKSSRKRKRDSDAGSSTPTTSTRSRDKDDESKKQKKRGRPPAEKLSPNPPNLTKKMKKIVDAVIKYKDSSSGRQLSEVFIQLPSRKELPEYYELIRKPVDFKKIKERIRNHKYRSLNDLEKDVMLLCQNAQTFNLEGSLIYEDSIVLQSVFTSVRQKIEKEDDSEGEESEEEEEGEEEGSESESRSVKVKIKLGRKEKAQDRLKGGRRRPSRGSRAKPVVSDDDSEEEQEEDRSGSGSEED

SMILES	SMARCA2 DMax % (SMARCA2)	DC50 (SMARCA2)	DC50 (SMARCA4)	SMARCA4 DMax % (SMARCA4)	Dmax (SMARCA2)	Dmax (SMARCA4)
CC1(C)CN(CC2CCN(c3ccc4c(c3)C(=O)N(C3CCC(=O)NC3=O)C4)CC2)CCN1C(=O)N1CCN2c3cc(-c4cccc(F)c4O)nnc3NCC2(C)C1 (single isomer, unassigned) [Example 10, 3-(6-(4-((4-(2-(3-fluoro-2-hydroxyphenyl)-6a-methyl-6,6a,7,8,9,10-hexahydro-5H-pyrazino[1′,2′:4,5]pyrazino[2,3-c]pyridazine-8-carbonyl)-3,3-dimethylpiperazin-1-yl)methyl)piperidin-1-yl)-1-oxoisoindolin-2-yl)piperidine-2,6-dione]	A (A=Dmax>75%)	< 100 nM	< 100 nM	C (C=Dmax<50%)	–	–
CCC12CNc3nnc(-c4cccc(F)c4O)cc3N1CCN(C(=O)N1[C@@H](C)CN(CC3CCN(c4ccc5c(c4)C(=O)N(C4CCC(=O)NC4=O)C5)CC3)C[C@@H]1C)C2 (single isomer, unassigned) [Example 81]	–	< 100 nM	100 to 1000 nM	–	> 75%	< 50%
O=C1CCC(N2Cc3ccc(N4CC[C@H](CN5C[C@@H]6[C@H](C5)[C@H]6CN5CCN6c7cc(-c8cc(F)cc(F)c8O)nnc7NC[C@H]6C5)[C@@H](F)C4)cc3C2=O)C(=O)N1 (single isomer, unassigned) [Example 37]	–	< 100 nM	< 100 nM	–	> 75%	–
COCC12CNc3nnc(-c4cccc(F)c4O)cc3N1CCN(C(=O)N1CCN(CC3CCN(c4ccc5c(c4)C(=O)N([C@H]4CCC(=O)NC4=O)C5)CC3)CC1(C)C)C2 (single isomer, unassigned) [Example 93]	–	< 100 nM	> 1000 nM	–	> 75%	< 50%
CCC12CNc3nnc(-c4cccc(F)c4O)cc3N1CCN(C(=O)N1[C@H](C)CN(CC3CCN(c4ccc5c(c4)C(=O)N(C4CCC(=O)NC4=O)C5)CC3)C[C@H]1C)C2 (single isomer, unassigned) [Example 83]	A (A=Dmax>75%)	< 100 nM	< 100 nM	B (B=50%<Dmax≤75%)	–	–
C[C@H]1CN(CC2CCN(c3ccc4c(c3)C(=O)N([C@H]3CCC(=O)NC3=O)C4)CC2)C[C@H](C)N1C(=O)N1CCN2c3cc(-c4cccc(F)c4O)nnc3NC[C@]2(C(F)F)C1 [Example 66, (S)-3-(6-(4-(((3S,5S)-4-((R)-6a-(difluoromethyl)-2-(3-fluoro-2-hydroxyphenyl)-6,6a,7,8,9,10-hexahydro-5H-pyrazino[1′,2′:4,5]pyrazino[2,3-c]pyridazine-8-carbonyl)-3,5-dimethylpiperazin-1-yl)methyl)piperidin-1-yl)-1-oxoisoindolin-2-yl)piperidine-2,6-dione]	–	< 100 nM	< 100 nM	–	> 75%	> 75%
CC1(C)CN(CC2CCN(c3ccc4c(c3)C(=O)N(C3CCC(=O)NC3=O)C4)CC2)CCN1C(=O)N1CCN2c3cc(-c4cccc(F)c4O)nnc3NCC2(C)C1 (single isomer, unassigned) [Example 9, 3-(6-(4-((4-(2-(3-fluoro-2-hydroxyphenyl)-6a-methyl-6,6a,7,8,9,10-hexahydro-5H-pyrazino[1′,2′:4,5]pyrazino[2,3-c]pyridazine-8-carbonyl)-3,3-dimethylpiperazin-1-yl)methyl)piperidin-1-yl)-1-oxoisoindolin-2-yl)piperidine-2,6-dione]	–	< 100 nM	< 100 nM	A (A=Dmax>75%)	> 75%	–
C[C@@H]1CN(CC2CCN(c3ccc4c(c3)C(=O)N([C@H]3CCC(=O)NC3=O)C4)CC2)C[C@H](C)N1C(=O)N1CCN2c3cc(-c4cccc(F)c4O)nnc3NCC2(C(F)(F)F)C1 (single isomer, unassigned) [Example 95]	–	< 100 nM	< 100 nM	–	> 75%	> 75%
C[C@@H]1CN(CC2CCN(c3ccc4c(c3)C(=O)N(C3CCC(=O)NC3=O)C4)CC2)C[C@H](C)N1C(=O)N1CCN2c3cc(-c4cc(F)cc(F)c4O)nnc3NC[C@H]2C1 (stereo partly drawn) [Example 15, 3-(6-(4-(((3R,5S)-4-((S)-2-(3,5-difluoro-2-hydroxyphenyl)-6,6a,7,8,9,10-hexahydro-5H-pyrazino[1′,2′:4,5]pyrazino[2,3-c]pyridazine-8-carbonyl)-3,5-dimethylpiperazin-1-yl)methyl)piperidin-1-yl)-1-oxoisoindolin-2-yl)piperidine-2,6-dione]	–	< 100 nM	< 100 nM	–	> 75%	50 to 75%
CC1(C)CC(CN2CCN(c3ccc4c(c3)C(=O)N(C3CCC(=O)NC3=O)C4)CC2)CCN1C(=O)N1CCN2c3cc(-c4cccc(F)c4O)nnc3NC[C@H]2C1 (stereo partly drawn) [Example 122, 3-(6-(4-((1-((S)-2-(3-fluoro-2-hydroxyphenyl)-6,6a,7,8,9,10-hexahydro-5H-pyrazino[1′,2′:4,5]pyrazino[2,3-c]pyridazine-8-carbonyl)-2,2-dimethylpiperidin-4-yl)methyl)piperazin-1-yl)-1-oxoisoindolin-2-yl)piperidine-2,6-dione]	–	< 100 nM	< 100 nM	–	> 75%	50 to 75%
C[C@@H]1CN(CC2CCN(c3ccc4c(c3)C(=O)N(C3CCC(=O)NC3=O)C4)CC2)C[C@H](C)N1C(=O)N1CCN2c3cc(-c4cccc(F)c4O)nnc3NC[C@]2(C(F)F)C1 (stereo partly drawn) [Example 70, 3-(6-(4-(((3R,5S)-4-((R)-6a-(difluoromethyl)-2-(3-fluoro-2-hydroxyphenyl)-6,6a,7,8,9,10-hexahydro-5H-pyrazino[1′,2′:4,5]pyrazino[2,3-c]pyridazine-8-carbonyl)-3,5-dimethylpiperazin-1-yl)methyl)piperidin-1-yl)-1-oxoisoindolin-2-yl)piperidine-2,6-dione]	–	< 100 nM	< 100 nM	–	> 75%	50 to 75%
CCC12CNc3nnc(-c4cccc(F)c4O)cc3N1CCN(C(=O)N1[C@H](C)CN(CC3CCN(c4ccc5c(c4)C(=O)N(C4CCC(=O)NC4=O)C5)CC3)C[C@@H]1C)C2 (single isomer, unassigned) [Example 88]	A (A=Dmax>75%)	< 100 nM	< 100 nM	A (A=Dmax>75%)	–	–
CCC12CNc3nnc(-c4cc(F)cc(F)c4O)cc3N1CCN(C(=O)N1[C@H](C)CN(CC3CCN(c4ccc5c(c4)C(=O)N(C4CCC(=O)NC4=O)C5)CC3)C[C@@H]1C)C2 (single isomer, unassigned) [Example 59]	–	< 100 nM	< 100 nM	–	> 75%	> 75%
CCC12CNc3nnc(-c4cccc(F)c4O)cc3N1CCN(C(=O)N1CCN(CC3CCN(c4ccc5c(c4)C(=O)N(C4CCC(=O)NC4=O)C5)CC3)CC1(C)C)C2 (single isomer, unassigned) [Example 79, 3-(6-(4-((4-(6a-ethyl-2-(3-fluoro-2-hydroxyphenyl)-6,6a,7,8,9,10-hexahydro-5H-pyrazino-[1′,2′:4,5]pyrazino[2,3-c]pyridazine-8-carbonyl)-3,3-dimethylpiperazin-1-yl)methyl)-piperidin-1-yl)-1-oxoisoindolin-2-yl)piperidine-2,6-dione]	–	< 100 nM	> 1000 nM	–	> 75%	< 50%
C[C@@H]1CN(C[C@H]2CCN(c3ccc4c(c3)C(=O)N(C3CCC(=O)NC3=O)C4)C[C@@H]2F)C[C@H](C)N1C(=O)N1CCN2c3cc(-c4cccc(F)c4O)nnc3NC[C@H]2C1 (single isomer, unassigned) [Example 44]	–	< 100 nM	< 100 nM	–	> 75%	< 50%
CC1(C)CN(CC2CCN(c3ccc4c(c3)C(=O)N(C3CCC(=O)NC3=O)C4)CC2)CCN1C(=O)N1CCN2c3cc(-c4cccc(F)c4O)nnc3NC[C@H]2C1 (stereo partly drawn) [Example 5, 3-(6-(4-((4-((S)-2-(3-fluoro-2-hydroxyphenyl)-6,6a,7,8,9,10-hexahydro-5H-pyrazino[1′,2′:4,5]pyrazino[2,3-c]pyridazine-8-carbonyl)-3,3-dimethylpiperazin-1-yl)methyl)piperidin-1-yl)-1-oxoisoindolin-2-yl)piperidine-2,6-dione]	–	< 100 nM	< 100 nM	–	> 75%	< 50%
CCC12CNc3nnc(-c4cc(F)cc(F)c4O)cc3N1CCN(C(=O)C1(F)CCC(CN3CCN(c4ccc5c(c4)C(=O)N([C@H]4CCC(=O)NC4=O)C5)CC3)CC1)C2 (single isomer, unassigned) [Example 102]	–	< 100 nM	< 100 nM	A (A=Dmax>75%)	> 75%	–
CCC12CNc3nnc(-c4cccc(Cl)c4O)cc3N1CCN(C(=O)C1(F)CCN(CC3CCN(c4ccc5c(c4)C(=O)N([C@H]4CCC(=O)NC4=O)C5)CC3)CC1)C2 (single isomer, unassigned) [Example 106]	–	< 100 nM	< 100 nM	–	> 75%	> 75%
CC1(C)CN(CC2CCN(c3ccc4c(c3)C(=O)N(C3CCC(=O)NC3=O)C4)CC2)CCN1C(=O)N1CCN2c3cc(-c4cccc(F)c4O)nnc3NCC2(C)C1 (mixture of isomers) [Example 6, 3-(6-(4-((4-(2-(3-fluoro-2-hydroxyphenyl)-6a-methyl-6,6a,7,8,9,10-hexahydro-5H-pyrazino[1′,2′:4,5]pyrazino[2,3-c]pyridazine-8-carbonyl)-3,3-dimethylpiperazin-1-yl)methyl)piperidin-1-yl)-1-oxoisoindolin-2-yl)piperidine-2,6-dione]	–	< 100 nM	< 100 nM	–	> 75%	> 75%
